Source: PubChem BioAssay (NCI)
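In this assay, cells in 96-well plates receive the compound at five concentrations for 48 hours. Endpoints are linearly interpolated between the surrounding concentrations. At the TGI there is no net growth.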

Key:
Test in all cases: growth of human tumour cells (NCI), 48 h
786-0 renal = test system: 786-0 renal
EKVX NSCLC = test system: EKVX NSCLC
HS 578T breast = test system: HS 578T breast
K-562 leukemia = test system: K-562 leukemia
SF-539 CNS = test system: SF-539 CNS
SK-MEL-28 melanoma = test system: SK-MEL-28 melanoma
SN12C renal = test system: SN12C renal
SW-620 colon = test system: SW-620 colon
TK-10 renal = test system: TK-10 renal
U251 CNS = test system: U251 CNS

| Compound | TGI (786-0 renal) | TGI (EKVX NSCLC) | TGI (HS 578T breast) | TGI (K-562 leukemia) | TGI (SF-539 CNS) | TGI (SK-MEL-28 melanoma) | TGI (SN12C renal) | TGI (SW-620 colon) | TGI (TK-10 renal) | TGI (U251 CNS) |
| --- | --- | --- | --- | --- | --- | --- | --- | --- | --- | --- |
| NCCC(N)C(=O)O (stereo not given) | > 100 µM | > 100 µM | > 100 µM | > 100 µM | > 100 µM | > 100 µM | > 100 µM | > 100 µM | > 100 µM | > 100 µM |
| CN1CC2=C(OC(N)=C(C#N)C2c2cccs2)/C(=C/c2cccs2)C1 (stereo not given) | > 69.9 µM | > 60.2 µM | > 100 µM | > 100 µM | > 100 µM | > 100 µM | > 100 µM | > 100 µM | > 100 µM | > 100 µM |
| CC(C)(CN)CN | > 100 µM | > 100 µM | > 100 µM | > 100 µM | > 100 µM | > 100 µM | > 100 µM | > 100 µM | > 100 µM | > 100 µM |
| COc1ccc2nc3cc(Cl)ccc3c(NCCCCCC(=O)NC(COc3cnc4c(ccc5cccnc54)c3)COc3cnc4c(ccc5cccnc54)c3)c2c1 | 28.1 µM | > 100 µM | > 100 µM | 13.6 µM | 53.5 µM | > 100 µM | > 100 µM | 24.4 µM | 91.6 µM | 21.8 µM |
| N=C(N)SCCON1C(=O)c2ccccc2C1=O | > 100 µM | > 100 µM | > 100 µM | > 100 µM | > 100 µM | > 100 µM | > 100 µM | > 100 µM | > 100 µM | > 100 µM |
| CCCCOC(=O)C(=O)C(CCC(=O)c1ccc(C)cc1)C(=O)C=C(C)C (stereo not given) | > 100 µM | > 100 µM | > 100 µM | > 100 µM | > 100 µM | > 100 µM | > 100 µM | > 100 µM | > 100 µM | > 100 µM |
| CCNC(=O)Nc1cccc(C)n1 | > 100 µM | > 100 µM | > 100 µM | > 100 µM | > 100 µM | > 100 µM | > 100 µM | > 100 µM | > 100 µM | > 100 µM |
| CC(=O)C(C(C)=O)=C1CCCC(O)O1 (stereo not given) | > 100 µM | > 100 µM | > 100 µM | > 100 µM | > 100 µM | > 100 µM | > 100 µM | > 100 µM | > 100 µM | > 100 µM |
| Cc1ccc(C)n2c1nc1ccc3ccccc3c12 | > 100 µM | > 100 µM | > 100 µM | > 100 µM | > 100 µM | > 100 µM | > 100 µM | > 100 µM | > 100 µM | > 100 µM |
| COC(=O)/C=C/c1ccccc1N=[S@](C)(=O)c1ccc(C)cc1 | > 100 µM | > 100 µM | 64.6 µM | > 100 µM | > 100 µM | > 100 µM | > 100 µM | > 100 µM | 71.9 µM | 51 µM |
| Cc1ccc([N+](=O)[O-])cc1S(=O)(=O)Nc1ccc(C2=NN(c3ccc([N+](=O)[O-])cc3[N+](=O)[O-])C(c3ccccc3)C2)cc1 (stereo not given) | 30.3 µM | 34.6 µM | 72 µM | > 100 µM | 50.8 µM | > 100 µM | 33.2 µM | > 100 µM | 61.8 µM | 25.3 µM |
| COc1ccc(N(C(=O)Nc2ccc(Cl)c(Cl)c2)c2ccccc2)cc1 | > 10 µM | > 10 µM | > 10 µM | > 10 µM | > 10 µM | > 10 µM | > 10 µM | > 10 µM | > 10 µM | > 10 µM |
| CC(C)Oc1c(-c2c(OC(C)C)c(=O)c2=O)c(=O)c1=O | > 66 µM | > 64.9 µM | > 67 µM | > 54.7 µM | > 100 µM | > 100 µM | > 62.7 µM | > 62 µM | > 100 µM | > 59.9 µM |
| CC(C)/C(Cl)=N/OC(=O)Nc1ccc(F)c(Cl)c1 | 2.96 µM | 5.17 µM | 53.3 µM | > 100 µM | 20.9 µM | 5.46 µM | 3.21 µM | 3.47 µM | 31.9 µM | 40.3 µM |
| COC1C(O)CC(OC2C(C)OC(Oc3cc(O)c4c(O)c5c(cc4c3)C[C@@H]([C@H](OC)C(=O)[C@@H](O)[C@@H](C)O)[C@H](OC3CC(OC4CC(OC6CC(C)(O)C(O)C(C)O6)C(O)C(C)O4)C(O)C(C)O3)C5=O)CC2OC(C)=O)OC1C (stereo not given in full) | > 100 µM | > 100 µM | > 100 µM | > 100 µM | > 100 µM | > 100 µM | > 100 µM | > 100 µM | > 100 µM | > 100 µM |
| O=C(Nc1ccccc1)O/N=C(/CBr)c1ccccc1 | 26.6 µM | 35.1 µM | 90.6 µM | > 100 µM | 29.5 µM | 43.2 µM | 25 µM | > 100 µM | 33.8 µM | 30.5 µM |
| COc1cc2c(cc1C[N+](C)(C)CSc1ccccc1)-c1ccccc1CC2 | 19.6 µM | 23.7 µM | 19.3 µM | 6.75 µM | 20.6 µM | > 35.1 µM | 19.2 µM | > 41.3 µM | 23.1 µM | 27.8 µM |
| CSc1c(C(=O)Nc2ccccc2)c(N)nn1-c1ccccc1 | > 100 µM | > 100 µM | > 100 µM | > 100 µM | > 100 µM | > 100 µM | > 100 µM | > 100 µM | > 100 µM | > 100 µM |
| CC(=O)NNc1nc(C)c(C(/C=C/c2ccc3c(c2)OCO3)=N/Nc2ccccc2)s1 | > 100 µM | > 100 µM | > 100 µM | > 100 µM | > 100 µM | > 100 µM | > 100 µM | > 100 µM | > 100 µM | > 100 µM |
| c1ccc(CNc2c3c(nc4ccccc24)CCC3)cc1 | 28.5 µM | 42.9 µM | 65.5 µM | 26.2 µM | 36.7 µM | 24.3 µM | 34.9 µM | 28.2 µM | 33.6 µM | 30.4 µM |
| Cc1c(C)c(C)c(-n2[nH]c(=O)n(C)c2=O)c(C)c1C | > 100 µM | > 100 µM | > 100 µM | > 100 µM | > 100 µM | > 100 µM | > 100 µM | > 100 µM | > 100 µM | > 100 µM |
